According to patent US20250032477A1, “COMPOUNDS, PHARMACEUTICAL COMPOSITIONS, AND METHODS FOR THE TREATMENT, PREVENTION, OR MANAGEMENT OF HYPERPROLIFERATIVE DISORDERS” (VINCERX PHARMA GMBH, priority 2021, published 2025):
Where a name gives a salt, the structure may show the parent alone. Read-outs that look alike come from different tables or passages of the source.

Legend:
786-O [1] = test: Cytotoxicity in vitro in the presence and absence of elastase (MTT); assay type: cell-based, human
Method: (§1) Cultivation of cells was performed according to standard procedures with the media recommended by the provider. The cells, in a total volume of 100 μL, were seeded in a 96-well plate with a white bottom (#3610). After a 24 h incubation period at 37° C. and […], the medium was exchanged by adding 90 μL fresh medium. The treatment started by adding the test compound in 10 μL of culture medium to the cells in triplicates. Concentrations ranging from 10^−5 M to 10^−13 M were chosen. Two identically treated sets of samples were prepared. One set was treated with the test compound alone, whereas to the second set the compound and 10 nM elastase was added followed by a 72 h incubation period at 37° C. and 5% CO2. The proliferation was detected using the MTT assay (ATCC). At the end of the incubation period the MTT reagent was added to all samples for 4 h. Lysis of the cells followed by addition of the detergent was done overnight. The formed dye was detected at 570 nm. The proliferation of untreated but otherwise identically handled cells was define as the […].

HT29 [2] = test: as above; assay type: cell-based, human
Method: as §1

NCI H292 [3] = test: as above; assay type: cell-based, human
Method: as §1

SUM149 [4] = test: as above; assay type: cell-based
Method: as §1

786-O [5] = test: Cytotoxicity assay (Version 2), automated, AC50, with or without elastase; assay type: cell-based, human
Method: as §1
(§2) The Cytotoxicity assay (Version 2) was performed as above described. Some changes were applied as the assays were performed in an automated fashion and the IC50 values determination was changed. Here the change in metabolic activity of the cells, in percent, was calculated by normalization of the measured values to the absorbance values of medium containing wells without cells (=−100%) and the absorbance of the DMSO-treated cells (=0%). AC50 values (activity concentration at −50%) were determined by means of a 4 parameter Hill-fit using GeneData Screener software.

HT29 [6] = test: as above; assay type: cell-based, human
Method: as §1, §2

NCI H292 [7] = test: as above; assay type: cell-based, human
Method: as §1, §2

SUM149 [8] = test: as above; assay type: cell-based
Method: as §1, §2

[9] = read-out: 786-O IC50 w elastase
[10] = read-out: NCI H292 IC 50 w elastase
[11] = read-out: SUM149 IC50 w elastase

SMILES | IC50 (786-O [1]; [9]) | IC50 (786-O [1]; read-out: 786-O IC50 w/o) | IC50 (HT29 [2]; read-out: HT29 IC50 w elastase) | IC50 (HT29 [2]; read-out: HT29 IC50 w/o) | IC50 (NCI H292 [3]; [10]) | IC50 (NCI H292 [3]; read-out: NCI H292 IC 50 w/o) | IC50 (SUM149 [4]; [11]) | IC50 (SUM149 [4]; read-out: SUM149 IC50 w/o) | further results
CCCNC(=O)Nc1cccc(S(=O)(=O)Nc2cccc([C@@H](CC(=O)O)NC(=O)Nc3ccc(NC(=O)NCCOCCOCCOCCC(=O)N[C@@H](CC(=O)O)C(=O)N4CCC[C@H]4C(=O)N[C@H](C(=O)O[C@]4(CC)C(=O)OCc5c4cc4n(c5=O)Cc5c-4nc4cc(F)c(C)c6c4c5[C@@H](NC(=O)OCc4ccccc4)CC6)C(C)C)cc3)c2)c1 [Compound 3, (1S,9S)-1-{[(benzyloxy)carbonyl]amino}-9-ethyl-5-fluoro-4-methyl-10,13-dioxo-2,3,9,10,13,15-hexahydro-1H,12H-benzo[de]pyrano[3′,4′:6,7] indolizino[1,2-b]quinolin-9-yl N-(14-{4-[({(1R)-2-carboxy-1-[3-({3-[(propylcarbamoyl)amino]benzene-1-sulfonyl}amino)phenyl]ethyl}carbamoyl)amino]anilino}-14-oxo-4,7,10-trioxa-13-azatetradecanan-1-oyl)-L-alpha-aspartyl-L-prolyl-L-valinate] | 0.1 to 1 nM | 10 to 100 nM | 0.1 to 1 nM | > 100 nM | 0.01 to 0.1 nM | 1.1 to 10 nM | 0.01 to 0.1 nM | 10 to 100 nM | 
CCCNC(=O)Nc1cccc(S(=O)(=O)Nc2cccc([C@@H](CC(=O)O)NC(=O)Nc3ccc(NC(=O)NCCN(C)CCN(C)CCN(C)CC(=O)N[C@@H](CC(N)=O)C(=O)N4CCC[C@H]4C(=O)N[C@H](C(=O)O[C@]4(CC)C(=O)OCc5c4cc4n(c5=O)Cc5cc6cc7c(cc6nc5-4)OCO7)C(C)C)cc3)c2)c1 [Compound 6, (7S)-7-ethyl-8,11-dioxo-7,8,11,13-tetrahydro-2H,10H-[1,3]dioxolo[4,5-g]pyrano[3′,4′:6,7] indolizino[1,2-b]quinolin-7-yl N-{2-[{2-[{2-[({4-[({(1R)-2-carboxy-1-[3-({3-[(propylcarbamoyl)amino]benzene-1-sulfonyl}amino)phenyl]ethyl}carbamoyl)amino]phenyl}carbamoyl)amino]ethyl}(methyl)amino]ethyl}(methyl)amino]ethyl}-N-methylglycyl-L-asparaginyl-L-prolyl-L-valinate] |  |  |  |  |  |  |  |  | IC50 (786-O [1]; 786-O cells, with 10 nM elastase, 72 h, MTT, read-out: 786-O IC50 w elastase): 0.01 to 0.1 nM; IC50 (786-O [1]; 786-O cells, without elastase, 72 h, MTT, read-out: 786-O IC50 w/o): 1.1 to 10 nM; IC50 (HT29 [2]; HT29 cells, with 10 nM elastase, 72 h, MTT, read-out: HT29 IC50 w elastase): 0.01 to 0.1 nM; IC50 (HT29 [2]; HT29 cells, without elastase, 72 h, MTT, read-out: HT29 IC50 w/o): 1.1 to 10 nM; IC50 (NCI H292 [3]; NCI H292 cells, with 10 nM elastase, 72 h, MTT, read-out: NCI H292 IC 50 w elastase): 0.01 to 0.1 nM; IC50 (NCI H292 [3]; NCI H292 cells, without elastase, 72 h, MTT, read-out: NCI H292 IC 50 w/o): 1.1 to 10 nM; IC50 (SUM149 [4]; SUM149 cells, with 10 nM elastase, 72 h, MTT, read-out: SUM149 IC50 w elastase): < 0.01 nM; IC50 (SUM149 [4]; SUM149 cells, without elastase, 72 h, MTT, read-out: SUM149 IC50 w/o): 0.1 to 1 nM
CCCNC(=O)Nc1cccc(S(=O)(=O)Nc2cccc([C@H](CC(=O)O)NC(=O)Nc3ccc(NC(=O)NCCOCCOCCOCCC(=O)N[C@@H](CC(=O)O)C(=O)N4CCC[C@H]4C(=O)N[C@H](C(=O)O[C@]4(CC)C(=O)OCc5c4cc4n(c5=O)Cc5c-4nc4cc(F)c(C)c6c4c5[C@@H](NC(C)=O)CC6)C(C)C)cc3)c2)c1 [Compound 13, disodium (1S,9S)-1-acetamido-9-ethyl-5-fluoro-4-methyl-10,13-dioxo-2,3,9,10,13,15-hexahydro-1H,12H-benzo[de]pyrano[3′,4′:6,7]indolizino[1,2-b]quinolin-9-yl 1-[(2S)-2-(carboxylatomethyl)-17-{4-[({(1S)-2-carboxylato-1-[3-({3-[(propylcarbamoyl)amino]benzene-1-sulfonyl}amino)phenyl]ethyl}carbamoyl)amino]anilino}-4,17-dioxo-7,10,13-trioxa-3,16-diazaheptadecanan-1-oyl]-L-prolyl-L-valinate] | 0.01 to 0.1 nM | 10 to 100 nM | 0.1 to 1 nM | > 100 nM | 0.01 to 0.1 nM | 1.1 to 10 nM | 0.01 to 0.1 nM | 1.1 to 10 nM | 
CCCNC(=O)Nc1cccc(S(=O)(=O)Nc2cccc([C@H](CC(=O)O)NC(=O)Nc3ccc(NC(=O)NCCOCCOCCOCCC(=O)N[C@@H](CC(=O)O)C(=O)N4CCC[C@H]4C(=O)N[C@H](C(=O)O[C@]4(CC)C(=O)OCc5c4cc4n(c5=O)Cc5cc6cc7c(cc6nc5-4)OCO7)C(C)C)cc3)c2)c1 [Compound 15, (7S)-7-ethyl-8,11-dioxo-7,8,11,13-tetrahydro-2H,10H-[1,3]dioxolo[4,5-g]pyrano [3′,4′:6,7]indolizino[1,2-b]quinolin-7-yl N-(14-{4-[({(1S)-2-carboxy-1-[3-({3-[(propylcarbamoyl)amino]benzene-1-sulfonyl}amino)phenyl]ethyl}carbamoyl)amino]anilino}-14-oxo-4,7,10-trioxa-13-azatetradecanan-1-oyl)-L-alpha-aspartyl-L-prolyl-L-valinate-bis sodium salt] | 0.01 to 0.1 nM | 10 to 100 nM | 0.01 to 0.1 nM | 10 to 100 nM | 0.01 to 0.1 nM | 1.1 to 10 nM | < 0.01 nM | 1.1 to 10 nM | 
CC[C@@]1(O)C(=O)OCc2c1cc1n(c2=O)Cc2c-1nc1cc(F)c(C)c3c1c2[C@@H](N(C)C)CC3 [Compound 18, (1S,9S)-1-(dimethylamino)-9-ethyl-5-fluoro-9-hydroxy-4-methyl-1,2,3,9,12,15-hexahydro-10H,13H-benzo[de]pyrano[3′,4′:6,7]indolizino[1,2-b]quinoline-10,13-dione] |  |  |  |  |  |  |  |  | AC50 (786-O [5]; Homo sapiens, 786-0, read-out: 786-O AC50 +elastase): 11 to 100 nM; AC50 (786-O [5]; Homo sapiens, 786-0, read-out: 786-O AC50 −elastase): 11 to 100 nM; AC50 (HT29 [6]; Homo sapiens, HT-29, read-out: HT29 AC50 +elastase): 1.1 to 10 nM; AC50 (HT29 [6]; Homo sapiens, HT-29, read-out: HT29 AC50 −elastase): 11 to 100 nM; AC50 (NCI H292 [7]; Homo sapiens, NCI-H292, read-out: NCI H292 AC50 +elastase): 1.1 to 10 nM; AC50 (NCI H292 [7]; Homo sapiens, NCI-H292, read-out: NCI H292 AC50 −elastase): 1.1 to 10 nM; AC50 (SUM149 [8]; SUM149, read-out: SUM149 AC50 +elastase): 1.1 to 10 nM; AC50 (SUM149 [8]; SUM149, read-out: SUM149 AC50 −elastase): 1.1 to 10 nM
CCCNC(=O)Nc1cccc(S(=O)(=O)Nc2cccc([C@@H](CC(=O)O)NC(=O)Nc3ccc(NC(=O)NCCOCCOCCOCCC(=O)N[C@@H](CC(=O)O)C(=O)N4CCC[C@H]4C(=O)N[C@H](C(=O)O[C@]4(CC)C(=O)OCc5c4cc4n(c5=O)Cc5c-4nc4cc(F)c(C)c6c4c5[C@@H](N(CC)CC)CC6)C(C)C)cc3)c2)c1 [Compound 19, (1S,9S)-1-(diethylamino)-9-ethyl-5-fluoro-4-methyl-10,13-dioxo-2,3,9,10,13,15-hexahydro-1H,12H-benzo[de]pyrano[3′,4′:6,7]indolizino[1,2-b]quinolin-9-yl N-(14-{4-[({(1R)-2-carboxy-1-[3-({3-[(propylcarbamoyl)amino]benzene-1-sulfonyl}amino)phenyl]ethyl}carbamoyl)amino]anilino}-14-oxo-4,7,10-trioxa-13-azatetradecanan-1-oyl)-L-alpha-aspartyl-L-prolyl-L-valinate] |  |  |  |  |  |  |  |  | AC50 (786-O [5]; 786-O cells, Version 2, with elastase, activity concentration at −50%, read-out: 786-O AC50 +elastase): 1.1 to 10 nM; AC50 (786-O [5]; 786-O cells, Version 2, without elastase, activity concentration at −50%, read-out: 786-O AC50 −elastase): > 100 nM; AC50 (HT29 [6]; HT29 cells, Version 2, with elastase, activity concentration at −50%, read-out: HT29 AC50 +elastase): 11 to 100 nM; AC50 (HT29 [6]; HT29 cells, Version 2, without elastase, activity concentration at −50%, read-out: HT29 AC50 −elastase): > 100 nM; AC50 (NCI H292 [7]; NCI H292 cells, Version 2, with elastase, activity concentration at −50%, read-out: NCI H292 AC50 +elastase): 11 to 100 nM; AC50 (NCI H292 [7]; NCI H292 cells, Version 2, without elastase, activity concentration at −50%, read-out: NCI H292 AC50 −elastase): > 100 nM; AC50 (SUM149 [8]; SUM149 cells, Version 2, with elastase, activity concentration at −50%, read-out: SUM149 AC50 +elastase): 1.1 to 10 nM; AC50 (SUM149 [8]; SUM149 cells, Version 2, without elastase, activity concentration at −50%, read-out: SUM149 AC50 −elastase): > 100 nM
